The IC50 is the midpoint of a concentration-inhibition curve.

The text below walks through data of patent US8673913B2, “SHP-2 phosphatase inhibitor” (Case Western Reserve University, priority 2009, dated 2014).

The test deals with T1, GST-CD45 cytoplasmic domain (Homo sapiens, UniProt P08575).
T1 construct: GST-CD45 cytoplasmic domain; purchased Biomol International, L.P. (Plymouth Meeting, Pa.)
T1 sequence (P08575 599-1306 limits assumed): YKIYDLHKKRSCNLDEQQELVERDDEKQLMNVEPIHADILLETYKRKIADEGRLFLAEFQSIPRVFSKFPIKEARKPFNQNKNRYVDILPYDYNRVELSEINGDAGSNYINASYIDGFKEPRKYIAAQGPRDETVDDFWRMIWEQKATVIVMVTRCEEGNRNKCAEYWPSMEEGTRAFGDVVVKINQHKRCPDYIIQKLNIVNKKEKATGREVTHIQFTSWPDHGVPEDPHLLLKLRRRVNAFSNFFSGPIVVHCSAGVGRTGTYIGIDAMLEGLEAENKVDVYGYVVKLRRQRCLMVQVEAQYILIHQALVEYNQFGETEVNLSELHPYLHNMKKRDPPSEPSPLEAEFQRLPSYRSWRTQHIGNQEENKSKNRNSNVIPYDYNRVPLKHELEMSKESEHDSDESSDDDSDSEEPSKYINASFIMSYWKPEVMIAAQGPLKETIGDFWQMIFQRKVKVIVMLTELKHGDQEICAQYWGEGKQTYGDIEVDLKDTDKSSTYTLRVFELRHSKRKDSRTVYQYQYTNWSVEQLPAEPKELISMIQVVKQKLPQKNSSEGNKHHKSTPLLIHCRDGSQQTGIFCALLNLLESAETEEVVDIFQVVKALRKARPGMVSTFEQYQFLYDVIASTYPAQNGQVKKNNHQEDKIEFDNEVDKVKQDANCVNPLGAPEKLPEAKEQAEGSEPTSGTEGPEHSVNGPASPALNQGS
Description: in vitro phosphatase assay, CD45. The conditions noted are these: read-out: IC50 PTPRC (CD45). In kind it is biochemical. The procedure:
Candidate compounds were screened using the in vitro protein tyrosine phosphatase (PTP) assay kit (Sigma, St. Lois, Mo.). […] The assay determines free phosphate generated by dephosphorylation of the PTP substrate using the Malachite Green reagent. Briefly, 0.5 μg of GST-SHP-2 PTP was incubated in 40 μL assay buffer (25 mM Tris-HCl, PH7.4, 50 mM NaCl, 5 mM DTT, and 2.5 mM EDTA) with test compounds at various concentrations or DMSO at room temperature for 30 min. The PTP substrate was then added to a final concentration of 0.2 mM. The system was incubated at 30° C. for 30 min. Finally, 50 μl of Malachite Green solution was added and OD620 was measured after 5 min. In the phosphatase assays for SHP-1, CD45, TC-PTP, PTP-MEG2 (PTPN9), and LAR (PTPRF), procedures were similar, with the exception that GST-SHP-1, GST-CD45 cytoplasmic domain, GST-TC-PTP, GST-PTP-MEG2 PTP domain, and GST-LAR PTP domain purchased from Biomol International, L.P. (Plymouth Meeting, Pa.) were used instead as the enzymes.

For the compound `Cc1cc(C)c2[nH]c3nc(SCC(=O)Nc4cccc5ccccc45)nnc3c2c1` [#324], the concentration for half-maximal inhibition (IC50) came to 182 µM.
